Measured values from patent US20250092345A1, “INTER ORGAN PLATFORM FOR MICROPHYSIOLOGICAL SYSTEM ON A CHIP” (THE TRUSTEES OF COLUMBIA UNIVERSITY IN THE CITY OF NEW YORK, priority 2020, published 2025).

Columns and labels:
Format in all cases: cell-based, human
[1] = tested on: non-metastatic and metastatic ES cell lines (RD-ES, SK-N-MC); test: MTT viability assay in ES cell monolayers; details: 0-100 μM over 72 hours
Description: MTT viability assay was used to determine drug toxicity, with luminescence generated by viable cells measured at the endpoint (10^4 cells per well, mean±s.e.m., n=3). […] In order to determine cancer cell viability, cells were lysed and treated with luciferin using a Bright-Glo™ assay, with subsequent luminescence measured (10^4 cells per well, mean±s.e.m., n=3).
Cell viability was analyzed using a previously established protocol. Cancer cell viability was measured for GFP-Luciferase labelled cancer cells using ONE-Glo luciferase substrate that was prepared according to manufacturer's protocol (Promega). Samples were collected following 3, 7, and 21 days cycles of linsitinib treatment. Where noted, longitudinal cell viability was also assessed using luminescence, though at the cost of signal strength. Briefly, in vivo grade VivoGlo™ Luciferin (Promega) was made at a 200× stock concentration (30 mg/ml) in water, added to sample culture media at a 1:200 dilution, and scanned using a spectrophotometer (Biotek). Some of the IC50 values were determined using cell viability data generated using an MTT assay (RealTime-Glo™ MT Cell Viability Assay, Promega) that were analyzed according to manufacturer's protocol.

[2] = tested on: engineered cardiac tissues; test: Engineered cardiac tissues in isolation, linsitinib cardiotoxicity; details: after linsitinib exposure, isolated
Description: After establishing the capability of TE-ES tumors to model drug efficacy, we evaluated the ability of cardiac tissues to determine the cardiotoxicity of linsitinib. Cardiac tissues were exposed to the same therapeutic concentration of linsitinib as bone tumors. […] Cardiotoxicity of linsitinib has been observed in clinical trials of other types of cancer, with patients presenting proarrhythmic events, like tachycardia (3.75-5% of patients) and atrial fibrillation (3.75-5%). We observed higher beat frequency and higher rate of proarrhythmic events per beat (around 36%) than in clinical studies (FIG. 32B and FIG. 32C). […]
Cardiac tissues were studied using caffeine (50 mM in water; Sigma-Aldrich), amiodarone hydrochloride (2.418 µM in DMSO; Sigma-Aldrich), isoproterenol hydrochloride (a series of drug concentrations in water; Sigma-Aldrich) or doxorubicin hydrochloride (1 µM in DMSO; Sigma-Aldrich), all diluted in RPMI Medium 1640 supplemented with B-27[…]. Response to isoproterenol was analyzed 10 minutes after exposure to […] isoproterenol hydrochloride, diluted in RPMI Medium […] supplemented with B27[…]. […]
To measure the cardiac contractility online, we took contractility videos of the tissues that were analyzed using the native MATLAB code we previously developed. Tissue contractility was measured by tracking the change in tissue area as a function of time. […]

[3] = tested on: engineered cardiac tissues; test: Cardiac tissue in the integrated platform with microfluidic perfusion, linsitinib; details: after linsitinib exposure
Description: The TE-ES and cardiac tissues were then cultured in the integrated platform with perfusion of mixed media. Linsitinib was introduced into the reservoir and delivered to tissues via circulation of perfusate and diffusion into the tissues.
Human iPS cell-derived cardiomyocytes at day 13 of differentiation were combined with normal human dermal fibroblasts (NHDF; Lonza) at a ratio of 75% human iPS-derived cardiomyocytes and 25% NHDF, for a total of 1 million cells per tissue. The hydrogel was formed by mixing 33 mg/mL of human fibrinogen (Sigma-Aldrich) with 25 U/mL of human thrombin (Sigma-Aldrich), at an 84:16 ratio. […]
To measure the cardiac contractility online, we took contractility videos of the tissues that were analyzed using the native MATLAB code we previously developed. Tissue contractility was measured by tracking the change in tissue area as a function of time. […] Absolute differences in cell area from the baseline frame were then calculated to create a time course of cell area changes over time. The resulting time courses were analyzed using a native MATLAB (MATHWorks) automated peak finding algorithm to determine locations of maximum cell contractions in the time profiles. Beat period lengths were determined from the length of time between the pairs of local maxima, and the beat frequencies were determined by inverting beat periods. […]

- inotropic response to subsequent isoproterenol [3]: expected inotropic response
Structure (SMILES): C[C@]1(O)C[C@@H](c2nc(-c3ccc4ccc(-c5ccccc5)nc4c3)c3c(N)nccn32)C1 [linsitinib]
- IC50 (MTT viability assay) [1]: two orders of magnitude lower than the effective plasma concentration observed in patients
- inotropic response to subsequent isoproterenol [2]: not observed
